# Entries after “also recorded” stand apart in the source; their conditions may differ. Where no end group is shown, it is not given here.
# What was measured:
# [1] = system: colonic epithelial cells; test: Coating of artificial stroma or plastic with extracellular matrix proteins (Example 3); format: cell-based, human
# Excerpt: Another embodiment of an organotypic culture prepared as described substantially as in Example 2, has an additional component. An extracellular matrix was applied to the organotypic cultures by coating the artificial stroma with matrix proteins Laminin-2 […] (Life Technologies, Rockville, Md.), Laminin-1 […] (Sigma), or Matrigel® gel matrix (Collaborative Research, Bedford, Mass.), which contains Laminin-1 and other matrix proteins, such as collagen IV and […] (Burgeson, R E., et al. 1994 Matrix Biol., 14:209–211 and Page, KC. et al. 1990 J. Biol. Reprod., 43:659–664). Fifty to 100 μl of base medium containing 20 ng/ml of laminins were added onto the surface of the artificial stroma for 60 minutes at 37° C. Matrigel® matrix was diluted 1:5 to 1:10 in base medium before use. After incubation, unbound laminins or Matrigel® matrix were removed by two washings with base medium. The organotypic cultures were incubated at 37° C. in 5% CO2 in growth medium, which was changed daily for 7 days, then three times per week for an additional 21 days. Growth and differentiation of colonic epithelium in growth medium was regulated by ECM components at the interface between the stroma and the epithelial layer. These ECM experiments were done in base medium, supplemented with LIF, SCF, ET3, EGF, insulin, and 1% FCS. […]
# [2] = system: colorectal carcinoma cell line HT29; test: Growth of carcinoma cell line on laminin substrates; format: cell-based; details: Laminin-2 compared to Laminin-1
# Excerpt: Quantitative analysis of the growth fractions confirmed that the different laminins control growth and differentiation. […] Enteric epithelial cells spread similarly on substrates of Laminins-2 and —I bound to plastic of culture dishes.
# [3] = system: enteric epithelial cells; test: Growth factor modulation of organotypic culture in reduced or modified media (Example 2); format: cell-based, human; details: growth factor added individually to base medium (MCDB 201/L15, transferrin, antibiotics)
# Description: To determine the role of growth factors on proliferation of colonic epithelial cells, this growth medium was modified by changing combinations of growth factors and deleting serum. Keratinocyte growth factor (KGF, R&D Systems) at 20 ng/ml was also tested as part of 23 growth factor combinations. Total relative cell numbers of a specific type were counted as an average of all nuclei counts from a minimum of 3 randomly selected cross-sections of a reconstruct. Goblet cells were counted based on their typical morphology and positive Alcian staining in at least 3 randomly selected slides. Proliferation rates in % were established by counting the number of BrdU or Ki-67-positive nuclei per total epithelial cell nuclei of section. Apoptotic cells were counted in H&E-stained sections (Vagunda, V. et al. 2000 Anal. Quant. Cytol. Histol., 22:307–310). Apoptotic bodies and nuclei were determined according to the size and numbers of the fragments. Apoptosis was calculated as percentage of total nuclei per section (Kerr, J F. et al. 1972 Br. J. Cancer, 26:239–257) To define the role of critical growth factors supporting growth and differentiation of the enteric epithelial cells, an organotypic culture, such as that described in Example 1, was grown in medium in which the number of supplements was reduced. In other experiments, the growth factors, including insulin, EGF, SCF, ET-3, KGF, bFGF, or AMF were added individually to the base medium (MCDB 201/L15 medium with transferrin and antibiotics). In each case, epithelial cell proliferation was not supported in the organotypic culture. In another experiment, the organotypic cultures were prepared by seeding epithelial cells on the artificial stroma in complete medium C or medium L/S/E or medium L. Medium C contained transferrin, insulin, bFGF, EGF, ET-3, HGF, LIF, SCF, AMF, and 1% FCS as supplements. L/S/E medium contained transferrin, insulin, LIF, SCF, ET-3, EGF, and 1% FCS. L medium contained transferrin, insulin, LIF, EGF, and 1% FCS. Sections of the cultures were stained with H&E and Alcian blue after 12 hours (day 0) and 4 days. Values were generated SD of 5 fields from 2 independent experiments. […] The L/S/E-supplemented base medium (LIF, SCF, ET-3, EGF, insulin, and 1% FCS) induced formation by day 4 of highly disorganized structures of stratified and pseudostratified epithelial cells. The epithelium was hyperplastic with morphological atypia. In contrast to results obtained with complete growth medium, only the upper surface rather than the entire artificial stroma was covered with epithelium.
# [4] = system: colonic epithelial cells; test: Proliferation of organotypic colon cultures in LIF-supplemented base medium (BrdU, 3H-thymidine, cell numbers per area); format: cell-based, human
# Description: Colonic epithelial cells described above were seeded on top of collagen gels containing embedded fibroblasts described above in 0.4 ml of complete growth medium. After seeding onto the matrix of collagen type I with embedded fibroblasts, samples were incubated at 37° C. in 5% CO2 for 60–90 minutes in a low volume of medium (50–100 μl) to enhance attachment. The epithelial cells and clusters attached within 60 minutes. The wells were then filled with complete growth medium. Medium was changed daily for 10 days, then three times per week for an additional 21 days.
# Proliferation of organotypic cultures was determined by adding bromodeoxyuridine (BrdU) to the medium according to the manufacturer's instructions (Amersham Pharmacia Biotech, Inc., Piscataway, N.J.). Thymidine incorporation was measured in cells, incubated with 1 μCi ^3H-thymidine/well for 18 hours before harvest and determination of radioactivity.
# (§1) Cell numbers were determined per high-power field (0.11×0.18 mm) using 40× magnification as the mean (±SD) of 364 measurements. Constriction of collagen matrices was measured as the length of the longitudinal axis of collagen harvested on days 0.5, 4 and 10 (mean±SD of 32 measurements of 4 samples. Positive cells per area were counted in 12 consecutive fields per cross-section (mean±SD of 16 areas of 2 random cross-sections from 4 samples. Relative number of positive cells per area was expressed as mean±SD of positive/total cells from 16 areas of 2 random cross-sections for each sample. Statistical significance was tested using Student's t-test.
# [5] = system: fibroblasts; test: Constriction of collagen matrix by embedded fibroblasts and fibroblast numbers; format: cell-based, human
# Description: Human smooth muscle cells HIAS119, kindly provided by Dr. E. Levine, The Wistar Institute, were isolated from large blood vessels and maintained in medium M199, supplemented with 10% FCS, 2 mM L-glutamine, and 50 μg/ml bovine hypothalamus extract (Oda, D. et al, 1998 In Vitro Cell. Dev. Biol. Anim., 34, 46–52). Fibroblasts at 8×10^5/ml were embedded in collagen type I (Organogenesis, Canton, Mass.) to a final concentration of 0.9 to 1.1 mg/ml in DMEM supplemented with 50 μM vitamin C (Sigma), 1.66 mM L-glutamine (GIBCO-BRL), and 1% FCS. The suspension was neutralized, pH 7.2, using 7.5% sodium bicarbonate. Chambered slides, Lab-Tek 8 wells (Nunc International, Rochester, N.Y.), were filled with 0.2 ml of the collagen and cell suspension. […]
# as §1
# [6] = system: colonic epithelial cells; test: Differentiated cells (goblet, enteroendocrine, carbonic anhydrase II) in organotypic colon cultures with LIF; format: cell-based, human
# Excerpt: The organotypic cultures were characterized as follows. Harvested organotypic cultures were fixed in 1.5% paraformaldehyde and embedded in paraffin. For electron microscopy (EM), cultures were fixed in 4% glutaraldehyde. For histochemistry and immunohistochemistry, 5-μm thick sections were cut from the paraffin beds and stained with hematoxylin and eosin (H&E) or Alcian Blue using standard procedures.
# Goblet cells were detected using Alcian Blue and EM. Enteroendocrine cells were identified by chromogranin A staining and EM. Immunohistochemical staining was done with monoclonal antibodies specific for: BrdU (Amersham), Ki67 (DAKO, Carpinteria, Calif.), α-smooth muscle actin (SMA) (Sigma), cytokeratin 19 (CK 19; antibody BA17 [33] kindly provided by Dr. J. Kovarik, Brno, Czech Rep.), chromogranin A (Novocastra, New Castle Upon Tyne, UK) and carbonic anhydrase II (The Binding Site Limited, Birmingham, UK). Immunohistochemistry was performed by standard techniques as described (Dai, C. Y. et al, 2000 Gastroenterology, 119, 929–942). Alkaline phosphatase activity of paraffin-embedded samples was detected using colorimetric substrate (AP Substrate Kit, SK 15100, Vector, Burlingame, Calif.).
# as §1
substance,measurement,setting,value
Laminin-2: matrix protein Laminin-2 α2β1γ1 (Life Technologies),control of growth and differentiation of colonic epithelium,"[1]; coating of artificial stroma, quantitative analysis of growth fractions",stimulated cell growth
same,survival of epithelial cells by day 5,[1]; laminin bound to plastic of culture dishes,survived only with Laminin-2
same,growth of HT29 cells,[2],better growth
autocrine motility factor [AMF],epithelial cell proliferation,[3],not supported
basic fibroblast growth factor [bFGF],epithelial cell proliferation,[3],not supported
"endothelin-3 (CTCFTYKDKECVYYCHLDIIW; ends and bridges not checked; cysteine pairing not given here; UniProt P14138 97-117, looked up) [ET-3, endothelin-3 (Peninsula Labs)]",epithelial cell proliferation,[3],not supported
insulin,epithelial cell proliferation,[3],not supported
leukemia inhibitory factor [LIF],3H-thymidine incorporation,"[4]; BM+LIF compared with BM only, after 2 days",Significant stimulation
same,Growth of epithelial cells,"[4]; LIF added to base medium, organotypic culture",significantly stimulated
same,number of colonic epithelial cells,[4]; LIF-containing base medium versus base medium,significantly higher
same,numbers of BrdU-positive and total epithelial cells,[4]; LIF-stimulated cultures,significantly higher
same,collagen constriction by fibroblasts,[5]; LIF in base medium,did not change
same,fibroblast numbers,[5]; LIF-stimulated cultures versus control,no differences
same,expression of differentiation marker carbonic anhydrase II,[6]; LIF only added to base medium,did not express
same,percentage of goblet cells among total cells and per area,"[6]; LIF, FIG. 3A",lack of stimulation
same,relative numbers of goblet cells (of all enterocytes),"[6]; LIF-cultured, p=0.81 versus control base medium",3.8±3.5%
same,numbers of goblet cells per area,"[6]; LIF-stimulated samples, p=0.13 versus samples without LIF",2.25±1.66
same,relative numbers of enteroendocrine cells,[6]; in the presence of LIF,significantly decreased; also recorded: decrease
stem cell factor [SCF],epithelial cell proliferation,[3],not supported

# From US7217570B2, “Organotypic intestinal culture and methods of use thereof” (The Wistar Institute of Anatomy and Biology, priority 2001, dated 2007)
